Paper PMC5776677 (Journal of medicinal chemistry, 2016)
Where a name gives a salt, the structure may show the parent alone.

Legend:
HIV-1 [1] = assay: Anti-HIV-1 activity in HIV-infected PBMCs; conditions: for TI (CC50/EC50), HIV-1: HIV-1, PBMCs
HIV-1 [2] = conditions: read-out: EC50 against HIV-1; cited from earlier work
[3] = Cytotoxicity in uninfected PBMCs; format: cell-based; conditions: human
HBV = assay: Anti-HBV activity in HepG2; format: cell-based
[4] = format: physicochemical
Aqueous solubility = format: physicochemical

| Compound | TI (CC50/EC50), HIV-1 (HIV-1 [1]) | TI (CC50/EC50), HBV (HBV) | other results |
| --- | --- | --- | --- |
| C[C@H](Cn1cnc2c(N)ncnc21)OCP(=O)(O)O [TFV, tenofovir, reference compound] | >300 |  |  |
| CCCCCCCCCCCCCCCCOCCCOP(=O)(O)CO[C@H](C)Cn1cnc2c(N)ncnc21 [CMX-157, Hexadecyloxypropyl-9-R-[2-(Phosphonomethoxy)-Propyl]-Adenine] |  |  | EC50 (HIV-1 [2]): 0.02 µM |
| CC(C)OC(=O)OCOP(=O)(CO[C@H](C)Cn1cnc2c(N)ncnc21)OCOC(=O)OC(C)C [TDF, tenofovir disoproxil fumarate] |  |  | CC50 [3]: 44 µM |
| C[C@H](Cn1cnc2c(N)ncnc21)OCP(=O)(O)OCCS [compound 6, 2-mercaptoethyl hydrogen ((((R)-1-(6-amino-9H-purin-9-yl)propan-2-yl)oxy)methyl)phosphonate] | >5.38 | >2 | stability in glycine/HCl buffer ([4]; pH 2.0, 0.1 M DTT, 37.4 °C): no observed decomposition; stability in PBS ([4]; pH 7.43, TFV appears as new signal): Moderate stability; decomposition in aqueous carbonate/bicarbonate buffer ([4]; pH 9.19, 0.1 M DTT, 37.4 °C): significant decomposition; time to complete consumption of starting material ([4]; pH 10.16): ≤ 8 min; fold less active than TFV against HIV-infected PBMCs (HIV-1 [1]; relative to TFV): 58 fold |
| C[C@H](Cn1cnc2c(N)ncnc21)OCP(=O)(O)OCCCCS [compound 7, 4-mercaptobutyl hydrogen ((((R)-1-(6-amino-9H-purin-9-yl)propan-2-yl)oxy)methyl)phosphonate] |  | > 1 | stability in various aqueous buffers ([4]; all tested pH values, several hours at 37 °C): no detectable decomposition |
| CCCCCCCCCCCCCCCCSSCCCCOP(=O)(O)CO[C@H](C)Cn1cnc2c(N)ncnc21 [2b, (R)-4-(hexadecyldisulfanyl)butyl (((1-(6-amino-9H-purin-9-yl)propan-2-yl)oxy)methyl)phosphonate] | >100000 | >200 | aqueous solubility (Aqueous solubility): poor aqueous solubility |
| CCCCCCCCCCCCCCCCSSCCOP(=O)(O)CO[C@H](C)Cn1cnc2c(N)ncnc21 [1b, 2-(hexadecyldisulfanyl)ethyl hydrogen ((((R)-1-(6-amino-9H-purin-9-yl)propan-2-yl)oxy)methyl)phosphonate] |  | > 1200 | aqueous solubility (Aqueous solubility): poor aqueous solubility |
| 6-(Dodecyldisulfanyl)hexyl Hydrogen ((((R)-1-(6-Amino-9H-purin-9-yl)propan-2-yl)oxy)methyl)phosphonate [5b] | >7000 | >47 |  |
| CCCCCCCCCCCCCCCCSSCc1ccccc1COP(=O)(O)CO[C@H](C)Cn1cnc2c(N)ncnc21 [4b, (R)-2-((hexadecyldisulfanyl)methyl)benzyl (((1-(6-amino-9H-purin-9-yl)propan-2-yl)oxy)methyl)phosphonate] | >31800 |  |  |
